In US20250270212A1, “CHIMERIC COMPOUNDS USEFUL IN TREATING DISEASES” (Padarn Therapeutics, Inc., priority 2021, published 2025):
Read-outs that look alike come from different tables or passages of the source.

Legend:
[1] = target: recombinant PARP1 (AA662-1014) protein (Homo sapiens (Human), UniProt P09874); experiment: Tracer displacement fluorescence polarization assay; settings: displacement of AlexaFluor488 tracer from NAD+-binding site, PARP1 25 nM
Method: Example B. Tracer Displacement Fluorescence Polarization Assays
Displacement of AlexaFlour488 marked tracer from the NAD+-binding site of recombinant PARP1 (AA662-1014) protein (OriGene, Cat #: AR09368PU-L) was measured in vitro using Fluorescence polarization assay. The reaction was carried out in assay buffer (50 mM TRIS-HCl pH 7.4-7.8, 150 mM NaCl, 10 mM MgCl2, 0.001% Triton-X). 2×PARP1 (final concentration 25 nM) was diluted in 1× Assay buffer and 10 μl of the solution per well was added into 384-well Black Non-Treated Reaction plate (Corning, Cat #4511). Plates were centrifuged for 1 min at 200 g. The compounds were prepared in a 384-well Diamond Well Plate (Axygen, Cat #P-384-120SQ-C-S) as 400× solutions in DMSO and were transferred into Reaction plate using the Biomek FX liquid handling system with intermediate dilution down to 10× working solution in assay buffer in a separate 384-well Diamond Well Plate (Axygen, Cat #P-384-120SQ-C-S) (2 μl per well). Plates were centrifuged for 1 min at 200 g and incubated for 15 min at room temperature in the dark. Then 8 μL per well of 2.5× Tracer AlexaFluor488 (final concentration 1 nM) diluted in 1× Assay buffer was added into Reaction plate. 1× Assay buffer was used to make blank samples for instrument calculations. Plates were incubated for 30 minutes at room temperature in the dark. Fluorescence polarization was measured using Microplate Reader (BMG, ClarioStar Plus). The % tracer displacement was used to calculate the IC50 values. The IC50 values are shown in Table A, wherein “A” corresponds to IC50<0.01 μM, “B” corresponds to 0.01 μM≤IC50<0.1 μM, “C” 0.1 μM≤IC50<[…], and “D” corresponds to […].

MDA-MB-231 = experiment: Cellular growth inhibition assay (CellTiter-Glo); format: cell-based; settings: Homo sapiens
Method: Example E. Cellular Growth Inhibition Assay
HEK293 (Institute of Cytology Russian Academy of Science), MDA-MB-231 (ATCC, CRM-HTB-26), HCC1395 (ATCC, CRL-2324), HCC1937 (ATCC, CRL-2336), UWB1.289+BRCA1 (ATCC, CRL-2946) were seeded at a density of 500 cells per well in a 384-well clear bottom plate (Greiner Cat #781090) in 45 μl total volume of DMEM (PanEco, Cat #C420) or RPMI (PanEco, Cat #C330) or RPMI/MEBM (Lonza, Cat #CC-3151+CC-4136) with 10% FBS (HyClone, Cat #SV30160.03). Cells were allowed to adhere overnight at 370 C, 5% CO2. 500× compounds solutions in DMSO (Sigma Cat #D2650) were prepared into Cmpnds plate (Diamond Well Plate, Axigen, Cat #P-384-120SQ-C-S) and DMSO only control was included. 1 μl of 500× compounds (Cmpnds plate) was added to 49 μl of culture medium into Dilution plate (Diamond Well Plate, Axigen, Cat #P-384-120SQ-C-S), mixed and then 5 μl of 10× compounds solutions were transferred to cells followed by centrifugation at 100 g for 1 min. Final DMSO concentration was 0.2%. After 3 days of incubation, 10 μl of 1× compounds were added to cells. […]

recombinant Wee1 protein = recombinant Wee1 protein (Homo sapiens (Human), UniProt P30291); experiment: Wee1 enzymatic activity inhibition, ADP-Glo luminescence assay; format: biochemical; settings: recombinant Wee1, PolyE4Y1 substrate, 1 h room temperature
Method: Example A. Primary Assay Used to Determine Potency of Wee1 Enzymatic Activity Inhibition
Compound activity was determined using recombinant Wee1 protein (BPS, Cat #40412) and PolyE4Y1 Substrate (Poly(Glu,Tyr) sodium salt, Sigma, Cat #P0275-25MG) in an in vitro enzymatic reaction. The enzymatic assay used to determine activity was a Luminescence assay using a Microplate Reader (BMG, ClarioStar Plus). The enzymatic reaction was carried out in assay buffer (40 mM TRIS-HCl pH 7.4-7.6, 20 mM MgCl2, 0.05 mM DTT, 0.1 mg/ml BSA, 5 mM MnCl2). The compounds were dispensed on a 384 well Diamond Well Plate (Axigen, Cat #P-384-120SQ-C-S) using the Biomek FX liquid handling system at 100× solutions of compounds in DMSO. 2×Wee1-PolyE4Y1 mix (final concentration 0.85 ng/μl of Wee1 and 0.2 μg/μl of PolyE4Y1) was prepared in 1× Assay buffer and 5.5 μl of mixture per well was added into 384w white Reaction plate with NBS (Corning, Cat #4513). 5.5 μl of PolyE4Y1 substrate w/o Wee1 in 1× buffer was used for negative control. Plates were centrifuged for 1 min at 100 g. Next step the Compounds were added to Reaction plate using Biomek station via following steps: 1 μl of 100× compounds (in DMSO) were mixed thoroughly with 49 μl of 2×10 μM ATP in Assay Buffer, then 5.5 μl of this mixture was added to Reaction plate with 5.5 μl of Wee1-PolyE4Y1 mix. Plates were centrifuged for 1 min at 100 g and incubated for 1 h at room temperature. Next 3 μL of ADP-Glo reagent (Promega, ADP-Glo™ Kinase Assay, Cat #V9102) per well was added. Plates were incubated for 30 minutes at room temperature. Then 6 μL of Kinase detection reagent (Promega, ADP-Glo™ Kinase Assay, Cat #V9102) per well was added and the Luminescence was measured using Microplate Reader. The % inhibition was then used to calculate the IC50 values. The IC50 values are shown in Table A, wherein “A” corresponds to IC50<0.01 μM, “B” corresponds to 0.01 μM≤IC50<0.1 μM, “C” 0.1 μM≤IC50<1 μM, and “D” corresponds to […].

[2] = 120 h, MDA-MB-231, 5 days, read-out: MDA-MB-231 EC50 (μM) 5 days
[3] = 168 h, MDA-MB-231, 7 days, read-out: MDA-MB-231 EC50 (μM) 7 days
[4] = 240 h, MDA-MB-231, 10 days, read-out: MDA-MB-231 EC50 (μM) 10 days

Sequence of recombinant PARP1 (AA662-1014) protein (P09874 662-1014): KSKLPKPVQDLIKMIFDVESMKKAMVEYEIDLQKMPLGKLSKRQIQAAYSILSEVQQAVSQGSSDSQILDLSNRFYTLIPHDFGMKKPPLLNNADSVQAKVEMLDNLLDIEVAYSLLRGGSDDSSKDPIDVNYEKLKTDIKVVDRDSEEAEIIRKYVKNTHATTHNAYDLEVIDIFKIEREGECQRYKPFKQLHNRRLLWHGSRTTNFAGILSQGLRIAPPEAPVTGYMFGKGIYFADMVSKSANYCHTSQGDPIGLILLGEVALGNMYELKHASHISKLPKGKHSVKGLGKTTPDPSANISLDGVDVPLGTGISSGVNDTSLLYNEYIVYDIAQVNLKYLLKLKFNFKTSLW
Sequence of recombinant Wee1 protein (P30291 whole entry): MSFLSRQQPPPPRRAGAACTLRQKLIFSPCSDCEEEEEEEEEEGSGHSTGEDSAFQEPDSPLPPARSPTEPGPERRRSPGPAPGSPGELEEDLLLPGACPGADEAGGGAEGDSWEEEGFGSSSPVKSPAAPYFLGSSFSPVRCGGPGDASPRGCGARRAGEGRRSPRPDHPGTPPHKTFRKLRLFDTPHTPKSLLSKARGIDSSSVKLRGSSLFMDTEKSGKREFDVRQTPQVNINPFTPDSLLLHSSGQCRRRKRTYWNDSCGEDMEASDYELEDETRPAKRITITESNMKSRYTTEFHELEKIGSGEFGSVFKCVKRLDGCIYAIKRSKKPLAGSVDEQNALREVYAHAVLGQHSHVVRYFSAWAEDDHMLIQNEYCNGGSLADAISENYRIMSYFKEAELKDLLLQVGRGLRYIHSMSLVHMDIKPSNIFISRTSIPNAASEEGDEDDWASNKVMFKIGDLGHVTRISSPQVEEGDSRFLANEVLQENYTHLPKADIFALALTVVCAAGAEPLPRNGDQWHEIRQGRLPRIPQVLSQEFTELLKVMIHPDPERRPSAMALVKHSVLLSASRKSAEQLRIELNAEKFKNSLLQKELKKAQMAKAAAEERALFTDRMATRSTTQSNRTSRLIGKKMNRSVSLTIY

Row | EC50 [1] | EC50 (MDA-MB-231; [2]) | EC50 (MDA-MB-231; [3]) | EC50 (MDA-MB-231; [4]) | EC50 (recombinant Wee1 protein) | Structure (SMILES)
1 | < 0.01 µM | > 10 µM |  |  | 0.01 to 0.1 µM | Cn1c(=O)c2cnc(Nc3ccc(N4CCN(C(=O)c5cc(Cn6c(=O)[nH]c(=O)c7c(F)cccc76)ccc5F)CC4)cc3)nc2n1-c1ccccn1 [Compound 18, 5-Fluoro-1-{4-fluoro-3-[(4-{4-[(2-methyl-3-oxo-1-pyridin-2-yl-2,3-dihydro-1H-pyrazolo[3,4-d]pyrimidin-6-yl)amino]phenyl}piperazin-1-yl)carbonyl]benzyl}quinazoline-2,4(1H,3H)-dione]
2 | ≥ 0.001 µM | > 10 µM |  |  | 0.1 to 1 µM | Cn1c(=O)c2cnc(Nc3ccc(NC(=O)c4cc(Cn5c(=O)[nH]c(=O)c6c(F)cccc65)ccc4F)cc3)nc2n1-c1ccccn1 [Compound 33, 2-Fluoro-5-[(5-fluoro-2,4-dioxo-3,4-dihydroquinazolin-1(2H)-yl)methyl]-N-{4-[(2-methyl-3-oxo-1-pyridin-2-yl-2,3-dihydro-1H-pyrazolo[3,4-d]pyrimidin-6-yl)amino]phenyl}benzamide]

The remaining lines, values behind:

Row | Structure (SMILES) | EC50 [1] | EC50 (MDA-MB-231; [2]) | EC50 (MDA-MB-231; [3]) | EC50 (MDA-MB-231; [4]) | EC50 (recombinant Wee1 protein)
3 | C=CCn1c(=O)c2cnc(Nc3ccc(N4CCN(C(=O)c5cc(Cc6n[nH]c(=O)c7ccccc67)ccc5F)CC4)cc3)nc2n1-c1ccccn1 [Compound 10, 4-{3-[(4-{4-[(2-Allyl-3-oxo-1-pyridin-2-yl-2,3-dihydro-1H-pyrazolo[3,4-d]pyrimidin-6-yl)amino]phenyl}piperazin-1-yl)carbonyl]-4-fluorobenzyl}phthalazin-1(2H)-one] | < 0.01 µM | 4.89 µM | 2.59 µM | 1.49 µM | 0.01 to 0.1 µM
4 | Cn1c(=O)c2cnc(Nc3ccc(N4CCN(C(=O)c5cc(Cc6n[nH]c(=O)c7ccccc67)ccc5F)CC4)cc3)nc2n1-c1ncccn1 [Compound 11, 4-{4-Fluoro-3-[(4-{4-[(2-methyl-3-oxo-1-pyrimidin-2-yl-2,3-dihydro-1H-pyrazolo[3,4-d]pyrimidin-6-yl)amino]phenyl}piperazin-1-yl)carbonyl]benzyl}phthalazin-1(2H)-one] | < 0.01 µM | 8.76 µM | 6.28 µM | 3.6 µM | 0.01 to 0.1 µM
5 | C=CCn1c(=O)c2cnc(Nc3ccc(N4CCN(Cc5ccc(-c6[nH]c7cc(F)cc8c7c6CCNC8=O)cc5)CC4)cc3)nc2n1-c1cccc(C(C)(C)O)n1 [Compound 35, 2-[4-({4-[4-({2-Allyl-1-[6-(1-hydroxy-1-methylethyl)pyridin-2-yl]-3-oxo-2,3-dihydro-1H-pyrazolo[3,4-d]pyrimidin-6-yl}amino)phenyl]piperazin-1-yl}methyl)phenyl]-8-fluoro-1,3,4,5-tetrahydro-6H-azepino[5,4,3-cd]indol-6-one] | 0.01 to 0.1 µM | 0.98 µM | 0.57 µM | 0.08 µM | 0.01 to 0.1 µM
